B1: APFL: APFL protein that bridges Ku70/80 complexes in the NHEJ complex (protein, UniProt Q8IW19 1-511, looked up)
Aprataxin and PNK-like factor: MSGGFELQPRDGGPRVALAPGETVIGRGPLLGITDKRVSRRHAILEVAGGQLRIKPIHTNPCFYQSSEKSQLLPLKPNLWCYLNPGDSFSLLVDKYIFRILSIPSEVEMQCTLRNSQVLDEDNILNETPKSPVINLPHETTGASQLEGSTEIAKTQMTPTNSVSFLGENRDCNKQQPILAERKRILPTWMLAEHLSDQNLSVPAISGGNVIQGSGKEEICKDKSQLNTTQQGRRQLISSGSSENTSAEQDTGEECKNTDQEESTISSKEMPQSFSAITLSNTEMNNIKTNAQRNKLPIEELGKVSKHKIATKRTPHKEDEAMSCSENCSSAQGDSLQDESQGSHSESSSNPSNPETLHAKATDSVLQGSEGNKVKRTSCMYGANCYRKNPVHFQHFSHPGDSDYGGVQIVGQDETDDRPECPYGPSCYRKNPQHKIEYRHNTLPVRNVLDEDNDNVGQPNEYDLNDSFLDDEEEDYEPTDEDSDWEPGKEDEEKEDVEELLKEAKRFMKRK

Key:
[1] = biological target: E3 ligase CEREBLON (in complex with its binding partner DDB1), the neo-target GSPT1 (Homo sapiens, UniProt P15170+Q96SW2); test: Tertiary complex formation between CRBN/DDB1 and GSPT1 with a molecular glue, on the nucleic acid scaffold (force cycles); details: for formation / stabilization of the tertiary complex CEREBLON-DDB1 / GSPT1 in the presence of the molecular glue: FIG. 27 and 28, force reduced to 0.01 pN to allow interaction
Protocol: (§3) Briefly, a reference elongation length of a nucleic acid scaffold present in a flow cell was determined at a constant force. Next, a single stranded polynucleotide containing the complementary sequence of the first molecule binding sequence as well as an amine group at the 5′ end (SEQ ID NO: 23) was coupled to candidate protein (CRBN and its binding partner DDB1 that form the E3 ligase complex) by a covalent conjugation (esterification via EDC). In parallel, a second single stranded polynucleotide containing the complementary sequence of the second molecule binding sequence as well as an amine group at the 3′ end (SEQ ID NO: 34) was coupled to candidate protein (GSTP1 neo-substrat of CRBN) by a covalent conjugation (esterification via EDC). A first candidate molecule conjugated to a first polynucleotide and a second candidate molecule covalently conjugated to a second polynucleotide are sequentially injected into the flow cell to anchor them on to the nucleic acid scaffold and form a screening nucleic acid scaffold (FIGS. 27 and 28). Then, a force of 2 pN was applied to determine the maximal elongation length. The force was then reduced to 0.01 pN to allow the two proteins to interact. If the two candidate molecules have binding interaction between them, upon increasing the force back to 2 pN, the elongation observed would be less than the full extension of the screening nucleic acid scaffold. If the two candidate molecules have no binding interaction between them or weaker binding interaction between them than the applied force, the nucleic acid scaffold would fully stretch. The two proteins are not believed to have a native interaction. […] Various concentration of compound can be performed to measure the Kon and Koff of interaction in presence of the compound.

[2] = biological target: E3 ligase CEREBLON (in complex with its binding partner DDB1), the neo-substrate IKAROS1 (Homo sapiens, UniProt Q13422+Q96SW2)
Protocol: as §3

[3] = system: double stranded blunt end substrates; test: NHEJ complex formation on two double stranded blunt end substrates on the scaffold (force cycles); type: binding; details: for role in the complex formed on the blunt end adapters: FIG. 25B, Ku70/80 and APFL injected together, 2 pN
Protocol: The system described in Example 1 and Example 2 was used for determining binding kinetics between two substrates and proteins that form a Non-Homologous End Joining (NHEJ) complex. The NHEJ complex recognizes double stranded blunt ends and repair these lesions in the cell. Accordingly, two substrates, each comprising a single stranded carrier polynucleotide and a candidate molecule comprising a double stranded blunt end were prepared, wherein the single stranded carrier polynucleotide was complementary to a molecule binding sequence of a nucleic acid scaffold. The double stranded blunt end was prepared by annealing twice two oligos together (SEQ ID NOS: 14 and 15, as well as SEQ ID NOS: 17 and 18 at 10 μM each in PBS).
(§1) Because each of the proposed sequences contained the glue sequence for first and second molecule binding sequence respectively, the substrates could be directed to a specific location on the nucleic acid scaffold. Accordingly, the two substrates for the NHEJ complex were anchored to two molecule binding sequences of the nucleic acid scaffold to form a screening nucleic acid scaffold. The excess substrates were washed away. A reference elongation length of a screening nucleic acid scaffold was determined by applying 2 pN force in the absence of the substrates.
(§2) Next, two candidate proteins, KU70/80 complex as well as the APFL protein together into PBS 1X, were injected within the flow cell. The flow was stop and force cycles experiments were initiated. Blockage traces were recorded at 0.1 pN and 2 pN. At 0.1 pN force, the screening nucleic acid scaffold was unstructured, which allowed the two blunt ends to be brought in close proximity. […] Because the method was a non-destructive process, the force cycles were repeated multiple times to further probe the interaction.
The system described in Example 1 and Example 2 was used for determining binding kinetics between two substrates and proteins that form a Non-Homologous End Joining (NHEJ) complex. The NHEJ complex recognizes double stranded blunt ends and repairs these lesions in the cell. Accordingly, two substrates, each comprising a single stranded carrier polynucleotide and a candidate molecule comprising a double stranded blunt end were prepared, wherein the single stranded carrier polynucleotide was complementary to a molecule binding sequence of a nucleic acid scaffold. The two double stranded blunt end adapters were prepared by annealing in two separate tubes two oligos together (SEQ ID NOS: 14 and 15, as well as SEQ ID NOS: 17 and 18 at 10 μM each in a buffer containing: 50 mM NaCl, 10 mM Tris-HCl, 10 mM MgCl2, 1 mM DTT at pH 7.9 @ 25° C.).
as §1, with “Because” for “Because each of”, “system was based on” for “sequences contained”, “protein complex recognizing blunt ends DNA,” for “glue sequence for first and second molecule binding sequence respectively,”, “applying force cycles at three step forces: 0.01,” for “applying”, “2 and 20” for “2”
as §2, with “a buffer containing: 20 mM Hepes-KOH PH7.8, 100 mM KCL, 5 mM MgCl2, 1 mM DTT, 0.5 mg/mL BSA, and they” for “PBS 1X,”, “Force cycles” for “Blockage traces”, “were the force varies between three plateau: 0.01 pN, 2” for “at 0.1”, “20 pN (FIG. 25A).” for “2 pN.”, “0.01” for “0.1”

[4] = Example 3, both proteins injected together in PBS 1X, force cycles 0.1 pN and 2 pN
[5] = Example 12, both proteins injected together, force cycles 0.01, 2 and 20 pN

E3 ligase CEREBLON (in complex with its binding partner DDB1), the neo-substrate IKAROS1, sequence (Q13422 whole entry): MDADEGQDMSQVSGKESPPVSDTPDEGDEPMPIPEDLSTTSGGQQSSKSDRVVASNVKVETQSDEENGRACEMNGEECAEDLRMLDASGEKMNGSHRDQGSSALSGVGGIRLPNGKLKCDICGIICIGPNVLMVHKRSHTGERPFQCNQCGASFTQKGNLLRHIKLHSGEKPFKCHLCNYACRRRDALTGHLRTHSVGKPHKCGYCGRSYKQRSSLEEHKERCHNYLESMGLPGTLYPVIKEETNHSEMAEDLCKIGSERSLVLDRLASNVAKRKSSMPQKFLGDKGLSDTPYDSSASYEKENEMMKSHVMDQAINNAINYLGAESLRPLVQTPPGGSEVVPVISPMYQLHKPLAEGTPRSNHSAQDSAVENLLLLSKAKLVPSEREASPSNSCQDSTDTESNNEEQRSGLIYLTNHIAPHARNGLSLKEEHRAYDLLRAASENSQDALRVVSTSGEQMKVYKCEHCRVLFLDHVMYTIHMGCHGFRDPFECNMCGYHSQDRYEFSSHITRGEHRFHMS
E3 ligase CEREBLON (in complex with its binding partner DDB1), the neo-substrate IKAROS1, sequence (Q16531 whole entry, further chain): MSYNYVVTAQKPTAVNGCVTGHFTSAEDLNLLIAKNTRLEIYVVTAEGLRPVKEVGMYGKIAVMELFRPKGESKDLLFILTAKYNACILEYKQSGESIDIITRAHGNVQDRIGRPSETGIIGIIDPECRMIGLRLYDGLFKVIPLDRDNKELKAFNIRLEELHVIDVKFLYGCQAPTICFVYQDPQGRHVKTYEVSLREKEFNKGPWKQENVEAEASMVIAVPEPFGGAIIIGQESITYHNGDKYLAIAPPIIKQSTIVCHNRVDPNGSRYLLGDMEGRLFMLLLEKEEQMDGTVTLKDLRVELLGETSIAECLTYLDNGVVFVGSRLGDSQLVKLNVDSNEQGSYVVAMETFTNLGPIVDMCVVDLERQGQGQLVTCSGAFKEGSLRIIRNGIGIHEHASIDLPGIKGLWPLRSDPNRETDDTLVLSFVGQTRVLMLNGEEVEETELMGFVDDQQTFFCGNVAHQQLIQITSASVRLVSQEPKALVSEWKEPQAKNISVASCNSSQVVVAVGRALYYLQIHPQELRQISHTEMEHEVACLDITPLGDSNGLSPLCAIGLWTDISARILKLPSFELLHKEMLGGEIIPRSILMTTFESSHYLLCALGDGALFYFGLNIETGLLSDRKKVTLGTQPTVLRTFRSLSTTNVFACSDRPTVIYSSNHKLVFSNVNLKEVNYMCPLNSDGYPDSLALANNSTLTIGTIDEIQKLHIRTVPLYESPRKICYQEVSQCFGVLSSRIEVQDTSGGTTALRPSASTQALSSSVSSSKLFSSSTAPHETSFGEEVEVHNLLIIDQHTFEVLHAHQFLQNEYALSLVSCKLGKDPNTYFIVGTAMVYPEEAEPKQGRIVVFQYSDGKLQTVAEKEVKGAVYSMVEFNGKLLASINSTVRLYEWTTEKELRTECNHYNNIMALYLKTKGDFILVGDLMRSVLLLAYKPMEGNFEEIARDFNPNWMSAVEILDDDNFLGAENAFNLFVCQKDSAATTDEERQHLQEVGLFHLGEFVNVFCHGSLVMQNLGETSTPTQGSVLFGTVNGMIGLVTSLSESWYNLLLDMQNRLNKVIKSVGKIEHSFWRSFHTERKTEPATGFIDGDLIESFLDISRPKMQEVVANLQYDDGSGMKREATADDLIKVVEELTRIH
E3 ligase CEREBLON (in complex with its binding partner DDB1), the neo-substrate IKAROS1, sequence (Q96SW2 whole entry): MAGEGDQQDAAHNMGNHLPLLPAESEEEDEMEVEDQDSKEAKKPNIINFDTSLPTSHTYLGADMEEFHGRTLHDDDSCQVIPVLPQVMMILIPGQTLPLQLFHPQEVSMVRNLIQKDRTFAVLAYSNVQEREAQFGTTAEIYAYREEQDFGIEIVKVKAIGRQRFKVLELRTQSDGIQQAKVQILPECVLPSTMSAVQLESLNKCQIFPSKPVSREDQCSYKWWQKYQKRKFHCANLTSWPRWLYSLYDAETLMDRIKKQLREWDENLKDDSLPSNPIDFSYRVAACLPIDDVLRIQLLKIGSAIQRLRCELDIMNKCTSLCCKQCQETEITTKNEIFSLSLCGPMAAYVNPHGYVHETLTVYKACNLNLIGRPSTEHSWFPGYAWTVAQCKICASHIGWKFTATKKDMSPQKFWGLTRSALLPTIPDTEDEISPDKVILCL
E3 ligase CEREBLON (in complex with its binding partner DDB1), the neo-target GSPT1, sequence (Q96SW2 whole entry): as above
E3 ligase CEREBLON (in complex with its binding partner DDB1), the neo-target GSPT1, sequence (Q16531 whole entry partner): as the sequence (Q16531 whole entry, further chain) above
E3 ligase CEREBLON (in complex with its binding partner DDB1), the neo-target GSPT1, sequence (P15170 whole entry): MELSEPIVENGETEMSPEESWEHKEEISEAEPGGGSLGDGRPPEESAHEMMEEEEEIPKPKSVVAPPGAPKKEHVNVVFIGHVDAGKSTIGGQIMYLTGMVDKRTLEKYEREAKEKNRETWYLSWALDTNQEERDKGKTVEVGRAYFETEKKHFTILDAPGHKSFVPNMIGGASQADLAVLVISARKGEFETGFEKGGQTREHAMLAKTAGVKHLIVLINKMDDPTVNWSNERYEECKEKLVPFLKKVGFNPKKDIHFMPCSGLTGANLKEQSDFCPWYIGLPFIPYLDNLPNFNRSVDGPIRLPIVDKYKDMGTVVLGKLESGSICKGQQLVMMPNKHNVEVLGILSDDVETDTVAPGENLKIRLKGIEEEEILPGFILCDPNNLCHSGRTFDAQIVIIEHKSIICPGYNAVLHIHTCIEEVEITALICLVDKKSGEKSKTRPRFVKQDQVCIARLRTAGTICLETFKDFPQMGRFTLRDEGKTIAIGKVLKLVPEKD

Molecule | formation / stabilization of the tertiary complex CEREBLON-DDB1 / GSPT1 in the presence of the molecular glue [1] | blockage of scaffold stretching (complex on the two blunt end substrates) [3, 4] | blockage of scaffold stretching (complex on the two blunt end substrates) [3, 5] | role in the complex formed on the blunt end adapters [3] | further results
Cc1ccc(NC(=O)NCc2ccc3c(c2)CN(C2CCC(=O)NC2=O)C3=O)cc1Cl (centres unmarked) [CC885] | greatly stabilizes the complex | – | – | – | force needed to break the tertiary complex ([1]; FIG. 27, CEREBLON-DDB1 / GSPT1): 20 pN; time to reform the complex when the force is reduced to 0.01 pN ([1]; FIG. 27, after breaking at 20 pN): few second
Nc1cccc2c1C(=O)N(C1CCC(=O)NC1=O)C2=O (centres unmarked) [pomalidomide] | – | – | – | – | force the tertiary complex can sustain ([2]; FIG. 29): up to 2 pN; formation of the tertiary complex CEREBLON-DDB1 / IKAROS1 upon addition of the molecular glue ([2]; FIG. 29): strong tertiary complex is formed; interaction between CRBN E3 ligase and IKZF1 in presence of the compound ([2]; compound at 1 nM): the interaction was observed
O=C1CCC(N2C(=O)c3ccccc3C2=O)C(=O)N1 (centres unmarked) [thalidomide] | possible to observe formation of the tertiary complex | – | – | – | strength of the tertiary complex interaction (in words) ([1]; FIG. 28, compared with CC885): the interaction is weaker and can be broken even at low force
KU70/80: KU70/80 complex, which binds at the double stranded breaks (NHEJ) | – | one or more transient blockages were observed | one or more transient blockages were observed | form at the blunt end of both adapters | –
B1 | – | one or more transient blockages were observed | one or more transient blockages were observed | bridges these complexes | –
